Reference: article PMC9599461, “Stereoselectivity in the Membrane Transport of Phenylethylamine Derivatives by Human Monoamine Transporters and Organic Cation Transporters 1, 2, and 3” (Biomolecules, 2022)

Columns and labels:
DAT = DAT (Homo sapiens, UniProt Q01959); assay: Stereoselective uptake into DAT-overexpressing HEK293 cells; details: for Clint ± SEM / Stereoselectivity Vmax / Stereoselectivity Km: DAT; for Clint ± SEM: quotient of vmax over Km; for Stereoselectivity Vmax / Stereoselectivity Km: ratio between enantiomers; for Stereoselectivity Vmax: given as for (R) or for 1; for Stereoselectivity Km: given as for (R) or for 1 (first-eluting); for selectivity ratio at 2 min: human, HEK293 cells stably overexpressing human DAT;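 on all read-outs here: intracellular accumulation measured by chiral HPLC-MS/MS in stably transfected HEK293 cells, normalized to total protein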
OCT3 = target: T1, OCT3 (Homo sapiens, UniProt O75751); assay: Stereoselective uptake into OCT3-overexpressing HEK293 cells; details: for Clint ± SEM / Stereoselectivity Vmax: OCT3; for Clint ± SEM: quotient of vmax over Km; for Stereoselectivity Vmax: ratio between enantiomers, given as for (S) or for 2; for selectivity ratio at 2 min: human, HEK293 cells stably overexpressing human OCT3;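 on all read-outs here: intracellular accumulation in HEK293 cells measured by chiral HPLC-MS/MS after a 2 min substrate exposure at 37 °C, uptake normalized to total protein (bicinchoninic acid assay)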
T1 sequence (O75751 1-556): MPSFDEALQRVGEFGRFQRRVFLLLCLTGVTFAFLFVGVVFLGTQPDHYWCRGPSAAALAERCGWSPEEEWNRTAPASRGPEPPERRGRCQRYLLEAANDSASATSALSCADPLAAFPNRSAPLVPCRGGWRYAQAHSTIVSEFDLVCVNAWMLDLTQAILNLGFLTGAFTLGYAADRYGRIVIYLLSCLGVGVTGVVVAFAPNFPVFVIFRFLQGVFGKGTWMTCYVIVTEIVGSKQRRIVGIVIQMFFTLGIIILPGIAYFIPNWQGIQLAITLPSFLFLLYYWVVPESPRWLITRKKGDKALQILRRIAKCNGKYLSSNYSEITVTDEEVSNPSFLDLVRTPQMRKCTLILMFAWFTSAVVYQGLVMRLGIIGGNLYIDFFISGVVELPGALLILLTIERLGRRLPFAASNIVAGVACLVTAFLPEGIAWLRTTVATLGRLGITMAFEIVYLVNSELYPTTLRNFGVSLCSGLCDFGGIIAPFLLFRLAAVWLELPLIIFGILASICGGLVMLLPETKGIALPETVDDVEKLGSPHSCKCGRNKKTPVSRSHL

[1] = tested on: OCT2 wild-type versus A270S variant; assay: Stereoselective uptake into OCT2 A270S variant-overexpressing HEK293 cells; details: human;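 further: uptake into HEK293 cells stably overexpressing human OCT2 variants, intracellular enantiomers quantified by chiral HPLC-MS/MS and normalized to total protein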
NET = NET (Homo sapiens, UniProt P23975); assay: Stereoselective uptake into NET-overexpressing HEK293 cells; details: for Clint ± SEM / Stereoselectivity Vmax / Stereoselectivity Km: NET; for Clint ± SEM: quotient of vmax over Km; for Stereoselectivity Vmax / Stereoselectivity Km: ratio between enantiomers; for Stereoselectivity Vmax: given as for (R) or for 1; for Stereoselectivity Km: given as for (R) or for 1 (first-eluting); for selectivity ratio at 2 min: human, HEK293 cells stably overexpressing human NET;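 on all read-outs here: intracellular enantiomers quantified in cell lysates by chiral HPLC-MS/MS after a 2 min substrate incubation, with uptake normalized to total cellular protein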
SERT = SERT (Homo sapiens, UniProt P31645); assay: Stereoselective uptake into SERT-overexpressing HEK293 cells; details: for Clint ± SEM / Stereoselectivity Vmax / Stereoselectivity Km: SERT; for Clint ± SEM: quotient of vmax over Km; for Stereoselectivity Vmax / Stereoselectivity Km: ratio between enantiomers; for Stereoselectivity Vmax: given as for (R) or for 1; for Stereoselectivity Km: given as for (R) or for 1 (first-eluting); for selectivity ratio at 2 min: human, HEK293 cells stably overexpressing human SERT;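 on all read-outs here: uptake into HEK293 cells stably expressing human SERT over 2 min, enantiomers measured in cell lysate by chiral HPLC-MS/MS, normalized to total protein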
OCT1 = target: T2, OCT1 (Homo sapiens, UniProt O15245); assay: Stereoselective uptake into OCT1-overexpressing HEK293 cells; details: OCT1; for Clint ± SEM: quotient of vmax over Km; for selectivity ratio at 2 min: human, ratio between enantiomers;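 on all read-outs here: enantiomers quantified inside cells by chiral HPLC-MS/MS, uptake normalized to total protein from bicinchoninic acid assay, substrates applied in HBSS+ buffer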
T2 sequence (O15245 1-554): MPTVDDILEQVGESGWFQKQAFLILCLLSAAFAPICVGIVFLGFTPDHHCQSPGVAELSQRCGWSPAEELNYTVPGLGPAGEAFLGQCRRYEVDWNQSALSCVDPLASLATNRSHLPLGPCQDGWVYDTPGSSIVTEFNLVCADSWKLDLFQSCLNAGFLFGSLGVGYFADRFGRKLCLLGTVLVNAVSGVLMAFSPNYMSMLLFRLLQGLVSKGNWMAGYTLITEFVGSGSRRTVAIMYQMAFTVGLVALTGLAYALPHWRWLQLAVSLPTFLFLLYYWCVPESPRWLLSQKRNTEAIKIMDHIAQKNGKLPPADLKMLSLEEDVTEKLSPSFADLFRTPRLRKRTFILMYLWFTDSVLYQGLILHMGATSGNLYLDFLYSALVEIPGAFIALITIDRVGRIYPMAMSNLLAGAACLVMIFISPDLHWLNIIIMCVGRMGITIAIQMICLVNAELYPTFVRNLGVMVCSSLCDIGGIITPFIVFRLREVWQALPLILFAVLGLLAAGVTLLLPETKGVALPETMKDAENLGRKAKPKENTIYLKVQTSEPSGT
Procedure: (§1) All transport experiments were carried out in HEK293 cells stably overexpressing human MATs or OCTs. […] All cells were regularly cultivated in DMEM supplemented with 10% (v/v) FCS, penicillin (100 U/mL) and streptomycin (100 μg/mL)and kept in culture for no longer than 30 passages.
(§2) For the uptake experiments, 300,000 cells were plated in poly-D-lysine precoated 24-well plates 48 h ahead of the transport experiment. On the day of experiment, cells were initially washed once with 37 °C pre-warmed HBSS+ (Hanks buffered salt solution supplemented with 10 mM HEPES) and subsequently incubated with the substrates dissolved in pre-warmed HBSS+ for exactly two minutes. Incubation was stopped by adding ice-cold HBSS+ followed by two washing steps. After this, cells were lysed with 80% acetonitrile containing 10 ng/mL milnacipran as internal standard for high-performance liquid chromatography coupled to tandem mass spectrometry (HPLC-MS/MS) analysis. For every experiment, two additional wells per cell line were lysed using RIPA buffer for protein quantification. Total protein was quantified using the bicinchoninic acid assay [42]. This was later used for normalization of the uptake data.
Intracellularly accumulated test substances were quantified by HPLC-MS/MS analysis using a Shimadzu Nexera HPLC system with a SIL-30AC autosampler, a CTO-20AC column oven, a LC-30AD pump, and a CBM-20A controller (Shimadzu, Kyoto, Japan). Stereoselective chromatography was carried out on a [sequence] CBH HPLC column (100 × 3 mm inner dimension with 5 μM particle size; Sigma-Aldrich, Darmstadt, Germany) with a corresponding 10 × 3 mm guard column. Reversed phased chromatography was carried out using an ammonium acetate (NH4Ac) buffered aqueous mobile phase with isopropyl alcohol (IPA) as organic solvent. […] The order of elution of the enantiomers was obtained from available reference literature [43] or by applying enantiopure reference compounds to the chiral HPLC. […] Given the structural similarity of the investigated substances and the fact that separation was performed on the same column with almost identical mobile phases, we assume that this order of elution for our compound set is always the (R)- before the (S)-enantiomer.
(§3) Detection was performed with an API 4000 tandem mass spectrometer (AB SCIEX, Darmstadt, Germany) operating in multiple-reaction-monitoring mode. Quantification was performed using the Analyst 1.6.2 software (AB SCIEX, Darmstadt, Germany) and quantified by comparison to standard curves with known concentrations.
(§4) All uptake data were normalized to protein content to account for variation in the number of seeded sells. Transporter-mediated net uptake was calculated by subtracting uptake into empty vector-transfected control cells from uptake into transporter-transfected cells. Kinetic parameters were then determined after non-linear regression following the Michaelis–Menten equation (v = vmax × [S]/(Km + [S])) using GraphPad Prism (Version 5.01 for Windows, GraphPad Software, La Jolla, CA, USA). Vmax refers to the maximum transport velocity and Km is defined as the substance concentration required to reach half of vmax. The intrinsic clearance Clint was calculated as the quotient of vmax over Km.

OCT2 = target: T3, OCT2 (Homo sapiens, UniProt O15244); assay: Stereoselective uptake into OCT2 (wild-type)-overexpressing HEK293 cells; details: OCT2; for Clint ± SEM: quotient of vmax over Km; for selectivity ratio at 2 min: human, ratio between enantiomers
T3 sequence (O15244 1-555 S270A): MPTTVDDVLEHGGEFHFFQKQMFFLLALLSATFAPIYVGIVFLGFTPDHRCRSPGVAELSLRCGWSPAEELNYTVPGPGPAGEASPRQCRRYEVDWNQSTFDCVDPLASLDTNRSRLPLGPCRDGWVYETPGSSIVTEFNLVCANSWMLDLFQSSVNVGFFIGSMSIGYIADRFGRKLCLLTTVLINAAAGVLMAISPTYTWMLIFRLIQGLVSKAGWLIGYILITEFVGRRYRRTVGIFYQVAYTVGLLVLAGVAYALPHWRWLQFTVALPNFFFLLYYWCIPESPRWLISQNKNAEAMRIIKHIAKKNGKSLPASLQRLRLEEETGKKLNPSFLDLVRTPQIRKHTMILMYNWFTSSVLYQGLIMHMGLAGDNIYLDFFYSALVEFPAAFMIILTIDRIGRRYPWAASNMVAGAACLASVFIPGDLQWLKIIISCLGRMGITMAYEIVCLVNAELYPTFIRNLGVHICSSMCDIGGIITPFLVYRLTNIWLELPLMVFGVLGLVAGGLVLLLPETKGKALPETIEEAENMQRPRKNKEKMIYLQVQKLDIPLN
Procedure: as §1, §2
(§5) Intracellularly accumulated test substances were quantified by HPLC-MS/MS analysis using a Shimadzu Nexera HPLC system with a SIL-30AC autosampler, a CTO-20AC column oven, a LC-30AD pump, and a CBM-20A controller (Shimadzu, Kyoto, Japan). Stereoselective chromatography was carried out on a [sequence] CBH HPLC column (100 × 3 mm inner dimension with 5 μM particle size; Sigma-Aldrich, Darmstadt, Germany) with a corresponding 10 × 3 mm guard column. Reversed phased chromatography was carried out using an ammonium acetate (NH4Ac) buffered aqueous mobile phase with isopropyl alcohol (IPA) as organic solvent. […] The order of elution of the enantiomers was obtained from available reference literature [43] or by applying enantiopure reference compounds to the chiral HPLC. […] However, in every other case where the order of elution was available, the (R)-enantiomer eluted first. Given the structural similarity of the investigated substances and the fact that separation was performed on the same column with almost identical mobile phases, we assume that this order of elution for our compound set is always the (R)- before the (S)-enantiomer.
as §3, §4
(§6) HEK293 cells stably overexpressing wild-type or mutant OCT2 were incubated with 100 μM racemic substance for two minutes.

[2] = tested on: human neuroblastoma cells; set-up: method as in PMID 9085193; details: cited from earlier work
OCT2 A270S variant = assay: in vitro; details: human, Stereoselectivity OCT2_A270S, 100 μM racemic substance, two minutes; uptake ratio of enantiomers, given as for (S)
OCT2 (wild-type) = target: T4, OCT2 (wild-type) (Homo sapiens, UniProt O15244); assay: Stereoselective uptake into OCT2 (wild-type)-overexpressing HEK293 cells; details: human, Stereoselectivity OCT2_WT, 100 μM racemic substance, two minutes; uptake ratio of enantiomers, given as for (S)
T4 sequence (O15244 1-555 S270A): T3 sequence (O15244 1-555 S270A)
Procedure: as §1, §2, §5, §3, §4, §6

[3] = HEK293 cells stably overexpressing human OCT1, Stereoselectivity ClInt, given as for (R) or for 1 (also 1.00-fold for 1/2)
[4] = HEK293 cells stably overexpressing human OCT1, Stereoselectivity Km, given as for (R) or for 1 (first-eluting)
[5] = HEK293 cells stably overexpressing human OCT1, Stereoselectivity Vmax, given as for (R) or for 1
[6] = HEK293 cells stably overexpressing human wild-type OCT2, Stereoselectivity ClInt, given as for (R) or for 1
[7] = HEK293 cells stably overexpressing human wild-type OCT2, Stereoselectivity Km, given as for (R) or for 1 (first-eluting)
[8] = HEK293 cells stably overexpressing human wild-type OCT2, Stereoselectivity Vmax, given as for (R) or for 1

NET, sequence (P23975 whole entry): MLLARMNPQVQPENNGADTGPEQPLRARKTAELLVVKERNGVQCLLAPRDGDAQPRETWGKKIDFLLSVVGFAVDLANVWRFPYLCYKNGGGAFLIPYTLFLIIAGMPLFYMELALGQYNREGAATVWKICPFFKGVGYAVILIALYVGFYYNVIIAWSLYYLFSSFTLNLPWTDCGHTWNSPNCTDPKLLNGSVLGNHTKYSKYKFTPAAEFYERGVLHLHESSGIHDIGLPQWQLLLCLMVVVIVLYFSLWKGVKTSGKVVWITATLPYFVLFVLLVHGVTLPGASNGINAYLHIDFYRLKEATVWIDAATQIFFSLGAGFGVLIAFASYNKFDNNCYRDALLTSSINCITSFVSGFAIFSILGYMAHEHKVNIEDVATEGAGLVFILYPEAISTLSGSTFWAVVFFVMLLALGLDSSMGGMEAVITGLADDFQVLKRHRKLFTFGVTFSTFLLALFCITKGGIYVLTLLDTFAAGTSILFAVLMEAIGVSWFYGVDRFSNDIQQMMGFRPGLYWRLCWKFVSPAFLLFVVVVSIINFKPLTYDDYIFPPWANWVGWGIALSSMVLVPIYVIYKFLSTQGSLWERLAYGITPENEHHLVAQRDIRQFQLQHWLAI
DAT, sequence (Q01959 whole entry): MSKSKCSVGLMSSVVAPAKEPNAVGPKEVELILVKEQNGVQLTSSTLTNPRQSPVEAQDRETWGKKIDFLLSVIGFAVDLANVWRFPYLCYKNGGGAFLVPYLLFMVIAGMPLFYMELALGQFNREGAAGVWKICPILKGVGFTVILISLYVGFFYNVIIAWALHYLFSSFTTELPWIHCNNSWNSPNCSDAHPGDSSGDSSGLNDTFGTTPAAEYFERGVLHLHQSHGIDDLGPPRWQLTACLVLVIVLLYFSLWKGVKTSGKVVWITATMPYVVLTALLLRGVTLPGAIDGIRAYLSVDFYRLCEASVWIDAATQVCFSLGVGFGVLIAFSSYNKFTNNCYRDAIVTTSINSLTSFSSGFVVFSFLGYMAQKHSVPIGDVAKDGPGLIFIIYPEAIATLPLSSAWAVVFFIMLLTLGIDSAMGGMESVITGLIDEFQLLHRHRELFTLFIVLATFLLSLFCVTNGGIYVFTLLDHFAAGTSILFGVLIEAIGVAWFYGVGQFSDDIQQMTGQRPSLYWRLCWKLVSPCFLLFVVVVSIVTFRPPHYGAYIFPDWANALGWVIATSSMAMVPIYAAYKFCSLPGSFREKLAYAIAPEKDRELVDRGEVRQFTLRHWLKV
SERT, sequence (P31645 whole entry): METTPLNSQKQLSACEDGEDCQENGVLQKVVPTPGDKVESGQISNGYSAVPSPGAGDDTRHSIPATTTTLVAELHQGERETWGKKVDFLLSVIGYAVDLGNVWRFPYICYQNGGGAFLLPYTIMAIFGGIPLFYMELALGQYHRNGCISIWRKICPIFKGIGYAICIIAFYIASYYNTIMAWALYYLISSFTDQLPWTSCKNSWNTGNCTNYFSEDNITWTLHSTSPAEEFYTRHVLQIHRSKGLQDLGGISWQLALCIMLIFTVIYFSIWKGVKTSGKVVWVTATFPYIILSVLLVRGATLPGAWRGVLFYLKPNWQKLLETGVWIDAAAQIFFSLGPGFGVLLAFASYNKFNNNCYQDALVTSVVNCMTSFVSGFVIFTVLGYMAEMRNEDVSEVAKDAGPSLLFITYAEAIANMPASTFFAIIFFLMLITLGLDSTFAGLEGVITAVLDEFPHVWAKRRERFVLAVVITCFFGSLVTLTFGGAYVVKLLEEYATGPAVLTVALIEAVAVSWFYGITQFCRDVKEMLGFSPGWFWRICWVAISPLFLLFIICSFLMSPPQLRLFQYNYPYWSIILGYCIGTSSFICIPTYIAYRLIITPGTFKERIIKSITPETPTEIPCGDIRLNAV

## NC[C@@H](O)c1ccc(O)cc1 [(S)-Octopamine]
DAT
  Clint ± SEM: 100 mL × g Protein^−1 × min^−1
  Stereoselectivity Vmax: 1.05 fold
  Stereoselectivity Km: 1.05 fold
  selectivity ratio at 2 min: 1
OCT3
  Clint ± SEM: 53.4 mL × g Protein^−1 × min^−1
  Stereoselectivity Vmax: 1.10 fold
  selectivity ratio at 2 min: 1.38
[1]
  selectivity ratio at 2 min, 100 μM: 1.17
NET
  Clint ± SEM: 198 mL × g Protein^−1 × min^−1
  Stereoselectivity Vmax: 1.30 fold
  Stereoselectivity Km: 1.55 fold
  selectivity ratio at 2 min: 1.19
SERT
  Clint ± SEM: 2.42 mL × g Protein^−1 × min^−1
  Stereoselectivity Vmax: 2.38 fold
  Stereoselectivity Km: 1.39 fold
  selectivity ratio at 2 min: 1.71
OCT1
  Clint ± SEM: 4.32 mL × g Protein^−1 × min^−1
OCT1; [3]
  selectivity ratio at 2 min: 1.05
OCT1; [4]
  selectivity ratio at 2 min: 1.04
OCT1; [5]
  selectivity ratio at 2 min: 1.09
OCT2
  Clint ± SEM: 30.2 mL × g Protein^−1 × min^−1
OCT2; [6]
  selectivity ratio at 2 min: 1.31
OCT2; [7]
  selectivity ratio at 2 min: 1.63
OCT2; [8]
  selectivity ratio at 2 min: 2.14

## CC1NCCc2cc(O)c(O)cc21 (stereo not drawn) [Salsolinol]
[2]
  Cytotoxicity of (S)-enantiomer versus (R)-enantiomer: almost two-fold higher
OCT2 A270S variant
  selectivity ratio at 2 min, 100 μM: 1.1
OCT2 (wild-type)
  selectivity ratio at 2 min, 100 μM: 1.06

## NC[C@H](O)c1ccc(O)cc1 [(R)-Octopamine]
DAT
  Clint ± SEM: 100 mL × g Protein^−1 × min^−1
  Stereoselectivity Vmax: 1.05 fold
  Stereoselectivity Km: 1.05 fold
  selectivity ratio at 2 min: 1
OCT3
  Clint ± SEM: 38.8 mL × g Protein^−1 × min^−1
  Stereoselectivity Vmax: 1.10 fold
  selectivity ratio at 2 min: 1.38
[1]
  selectivity ratio at 2 min, 100 μM: 1.2
NET
  Clint ± SEM: 166 mL × g Protein^−1 × min^−1
  Stereoselectivity Vmax: 1.30 fold
  Stereoselectivity Km: 1.55 fold
  selectivity ratio at 2 min: 1.19
SERT
  Clint ± SEM: 4.14 mL × g Protein^−1 × min^−1
  Stereoselectivity Vmax: 2.38 fold
  Stereoselectivity Km: 1.39 fold
  selectivity ratio at 2 min: 1.71
OCT1
  Clint ± SEM: 4.53 mL × g Protein^−1 × min^−1
OCT1; [3]
  selectivity ratio at 2 min: 1.05
OCT1; [4]
  selectivity ratio at 2 min: 1.04
OCT1; [5]
  selectivity ratio at 2 min: 1.09
OCT2
  Clint ± SEM: 39.6 mL × g Protein^−1 × min^−1
OCT2; [6]
  selectivity ratio at 2 min: 1.31
OCT2; [7]
  selectivity ratio at 2 min: 1.63
OCT2; [8]
  selectivity ratio at 2 min: 2.14
